Results on nine substances are retold here after patent US10201556B2, “Combination for use in treating diseases or conditions associated with melanoma, or treating diseases or conditions associated with activated B-raf pathway” (InteRNA Technologies B.V., priority 2012, dated 2019).

Entries after “also recorded” stand apart in the source; their conditions may differ.

Data set [1] deals with A375Hu-R1 melanoma cell line. Kind of data set: Anti-proliferative effect of miRNA mimics, MTS assay. Particulars: 10 nM mimic, 72 hours after transfection. The format is cell-based, human. The procedure:
(§1) The anti-proliferative effect of miRNA's in melanoma cell lines was determined with mature miRNA mimics from Ambion. For each cell line optimal growth and transfection conditions were determined prior to the experiment. Cells were plated in a 96-well plate at 3000 cells per well (100 uL) and were grown at 37 C, 5% CO2. Transfection mix (20 uL per well) was made for each miRNA mimic concentration with 0.3 uL (M249, M249-R4) or 0.5 uL (A375Hu, A375Hu-R1, A2058, RPMI-7951) X-TremeGene (Roche) per well (according to manufacturer's instructions) in Optimem (Invitrogen). Cells were transfected 24 hours after plating in triplicate. Medium was replaced 48 hours after transfection with fresh medium.

Data set [2] relates to A375Hu melanoma cell line. The data set is described as above. Particulars: 10 nM mimic, 72 hours after transfection. The format is cell-based, human. As for the experimental part:
as §1

Data set [3] has as its system RPMI-7951 melanoma cell line. The description is as above. The format is cell-based. Particulars: 10 nM mimic, 72 hours after transfection. The procedure: as §1
The subject of data set [4] is M249-AR (M249-R4) melanoma cell line. The description is as above. The format is cell-based. Particulars: 30 nM mimic, 72 hours after transfection. The procedure:
as §1

The subject of a further data set is M249 melanoma cell line. Described as above. The format is cell-based. Particulars: 5 nM mimic, 72 hours after transfection. As for the experimental part: as §1
A further data set has as its system A2058 melanoma cell line. The description is as above. In kind it is cell-based. Particulars: 10 nM mimic, 72 hours after transfection. The procedure:
as §1

The next data set relates to CDK6. Kind of data set: Western immunoblotting of CDK6 protein levels. The format is cell-based, human. Particulars: A375Hu cells, 72 hrs post transfection, Western blot. The procedure:
(§2) A375Hu cells were seeded in 6-well plates and transfected with different concentrations (10, 50 and 100 nM) of synthetic hsa-miR-129-5p or BRAF siRNA (100 nM) using RNAiMAX (7.5 μl/well). As control a scrambled miRNA and a non-targeting siRNA pool were included. Proteins were harvested 72 hrs post transfection using RIPA buffer supplemented with HALT™ Phosphatase Inhibitor (Thermo Scientific) and Protease Inhibitor Cocktail (Sigma). Fifteen μg protein was loaded on 7.5% TGX acrylamide gels (Bio-Rad) and subsequently transferred to PVDF membranes. The membranes were blocked in 5% milk in TBS-T and incubated O/N at 4° C. with primary antibodies to bRAF, phosphoERK1/2, CDK6, and tubulin (Santa Cruz). After incubation with secondary goat-anti-mouse antibodies (Santa Cruz), membranes were developed using ECL (Pierce).
Background: A western blot detects proteins with antibodies after separation by electrophoresis.

Another data set deals with phospho-ERK1/2. Kind of data set: Western immunoblotting of phospho-ERK1/2 protein levels. In kind it is cell-based, human. Particulars: A375Hu cells, 72 hrs, Western blot. As for the experimental part:
as §2
as §2, with “(1, 10” for “(10, 50”, “hsa-miR-3157” for “hsa-miR-129-5p”, “bRAF, total ERK1/2,” for “bRAF,”, “CDK4, BCL2” for “CDK6,”
as §2, with “concentrations” for “concentrations (10, 50 and 100 nM)”, “vemurafenib (PLX-4032, 0.01, 0.1, 1 uM).” for “synthetic hsa-miR-129-5p or BRAF siRNA (100 nM) using RNAiMAX (7.5 μl/well). As control a scrambled miRNA and a non-targeting siRNA pool were included.”, “bRAF, total ERK1/2,” for “bRAF,”, “CDK4, BCL2” for “CDK6,”
A2058 cells were seeded in 6-well plates and transfected with different concentrations (1, 10 and 100 nM) of synthetic hsa-miR-3157-5p or BRAF siRNA using X-TremeGene (Roche, 15 μl/well). As control a scrambled miRNA was included. Proteins were harvested 72 hrs post transfection using RIPA buffer supplemented with HALT™ Phosphatase Inhibitor (Thermo Scientific) and Protease Inhibitor Cocktail (Sigma). Fifteen μg protein was loaded on 10% TGX acrylamide gels (Bio-Rad) and subsequently transferred to PVDF membranes. The membranes were blocked in 5% milk in TBS-T and incubated O/N at 4° C. with primary antibodies to bRAF, total ERK1/2, phosphoERK1/2, BCL2, CDK4 and tubulin (Santa Cruz). After incubation with secondary goat-anti-mouse antibodies (Santa Cruz), membranes were developed using ECL (Pierce).
Transfection was performed as described in Example 4 in 6-well format. Proteins were isolated using RIPA buffer (50 mM Tris pH 8.0, 150 mM NaCL, 1% NP-40, 0.5% Sodium deoxycholate, 0.1% SDS), supplemented with Protease Inhibitor Cocktail (Sigma) and Halt™ Phosphatase Inhibitor Cocktail (Pierce/Thermo Scientific). […]

As for “hsa-miR-7-5p: mature miRNA mimic, SEQ ID NO 1 UGGAAGACUAGUGAUUUUGUUGU (listed as RNA, chemistry not given here)”, the “A375Hu-R1 % Viability 10 nM” value in data set [1] amounted to 68%. In addition, in data set [2], the “A375Hu % Viability 10 nM” value stood at 58%. Further, the “RPMI-7951 % Viability 10 nM” value in data set [3] came to 65%. The “M249-AR % Viability 30 nM” value in data set [4] turned out to be 67%. For the same substance, in the data set on M249 melanoma cell line, the “M249 % Viability 5 nM” value was 48%. Besides, the “A2058 % Viability 10 nM” value in the data set with A2058 melanoma cell line is 51%.

With “hsa-miR-10b-3p: mature miRNA mimic, SEQ ID NO 2 ACAGAUUCGAUUCUAGGGGAAU (listed as RNA, chemistry not given here)”, in data set [1], the “A375Hu-R1 % Viability 10 nM” value came out at 59%. Besides, the “A375Hu % Viability 10 nM” value in data set [2] turned out to be 71%. Further, the “RPMI-7951 % Viability 10 nM” value in data set [3] is reported as 51%. In addition, the “M249-AR % Viability 30 nM” value in data set [4] worked out at 86%. Further, the “M249 % Viability 5 nM” value in the data set on M249 melanoma cell line is 82%. For the same substance, the “A2058 % Viability 10 nM” value with A2058 melanoma cell line worked out at 42%.

With “hsa-miR-16-5p: mature miRNA mimic, SEQ ID NO 7 UAGCAGCACGUAAAUAUUGGCG (listed as RNA, chemistry not given here)”, the “A375Hu-R1 % Viability 10 nM” value in data set [1] is given as 57%. In addition, the “A375Hu % Viability 10 nM” value in data set [2] is on record as 62%. Moreover, the “RPMI-7951 % Viability 10 nM” value in data set [3] is 68%. Further, in data set [4], the “M249-AR % Viability 30 nM” value is listed as 68%. In addition, the “M249 % Viability 5 nM” value in the data set with M249 melanoma cell line is listed as 27%. Further, in the data set on A2058 melanoma cell line, the “A2058 % Viability 10 nM” value amounted to 39%.

For “hsa-miR-96-5p: mature miRNA mimic, SEQ ID NO 3 UUUGGCACUAGCACAUUUUUGCU (listed as RNA, chemistry not given here)”, in data set [1], the “A375Hu-R1 % Viability 10 nM” value turned out to be 69%. For the same substance, in data set [2], the “A375Hu % Viability 10 nM” value came out at 73%. Besides, the “RPMI-7951 % Viability 10 nM” value in data set [3] was found to be 53%. Moreover, in data set [4], the “M249-AR % Viability 30 nM” value amounted to 82%. Moreover, the “M249 % Viability 5 nM” value in the data set on M249 melanoma cell line came to 64%. The “A2058 % Viability 10 nM” value in the data set with A2058 melanoma cell line is recorded as 33%.

For the substance “hsa-miR-129-5p: mature miRNA mimic, SEQ ID NO 4 CUUUUUGCGGUCUGGGCUUGC (listed as RNA, chemistry not given here)”, in the data set with CDK6, the CDK6 protein levels entry is on record as “significant reduction in CDK6 protein abundance; also recorded: down-regulates”. Moreover, in data set [1], the “A375Hu-R1 % Viability 10 nM” value was determined as 48%. Also, in data set [2], the “A375Hu % Viability 10 nM” value was 59%. In data set [3], the “RPMI-7951 % Viability 10 nM” value was found to be 82%. In data set [4], the “M249-AR % Viability 30 nM” value is recorded as 64%. The “M249 % Viability 5 nM” value in the data set on M249 melanoma cell line is 47%. Moreover, in the data set on A2058 melanoma cell line, the “A2058 % Viability 10 nM” value came out at 44%. Also, the phospho-ERK1/2 protein levels entry in the data set with phospho-ERK1/2 is listed as “does not result in pERK down-regulation”.

Turning to “hsa-miR-182-3p: mature miRNA mimic, SEQ ID NO 10 UGGUUCUAGACUUGCCAACUA (listed as RNA, chemistry not given here)”, the “A375Hu-R1 % Viability 10 nM” value in data set [1] is 59%. Moreover, the “RPMI-7951 % Viability 10 nM” value in data set [3] is listed as 68%. Further, in data set [4], the “M249-AR % Viability 30 nM” value turned out to be 83%. Also, the “M249 % Viability 5 nM” value in the data set with M249 melanoma cell line worked out at 71%. Moreover, the “A2058 % Viability 10 nM” value with A2058 melanoma cell line amounted to 77%.

Turning to “hsa-miR-200c-5p: mature miRNA mimic, SEQ ID NO 9 CGUCUUACCCAGCAGUGUUUGG (listed as RNA, chemistry not given here)”, the “A375Hu-R1 % Viability 10 nM” value in data set [1] is given as 66%. Further, the “A375Hu % Viability 10 nM” value in data set [2] is 43%. Moreover, the “RPMI-7951 % Viability 10 nM” value in data set [3] came out at 58%. For the same substance, in data set [4], the “M249-AR % Viability 30 nM” value came out at 58%. Besides, the “M249 % Viability 5 nM” value in the data set with M249 melanoma cell line is on record as 44%. For the same substance, in the data set with A2058 melanoma cell line, the “A2058 % Viability 10 nM” value turned out to be 37%.

As for “hsa-miR-497-5p: mature miRNA mimic, SEQ ID NO 8 CAGCAGCACACUGUGGUUUGU (listed as RNA, chemistry not given here)”, in data set [1], the “A375Hu-R1 % Viability 10 nM” value is listed as 57%. Also, in data set [2], the “A375Hu % Viability 10 nM” value is on record as 45%. Moreover, the “RPMI-7951 % Viability 10 nM” value in data set [3] is given as 68%. In data set [4], the “M249-AR % Viability 30 nM” value stood at 68%. Moreover, the “M249 % Viability 5 nM” value in the data set with M249 melanoma cell line stood at 29%. Also, the “A2058 % Viability 10 nM” value in the data set on A2058 melanoma cell line is on record as 53%.

Take “hsa-miR-518b: mature miRNA mimic, SEQ ID NO 5 CAAAGCGCUCCCCUUUAGAGGU (listed as RNA, chemistry not given here)”: in data set [2], the “A375Hu % Viability 10 nM” value stood at 66%. Further, the “RPMI-7951 % Viability 10 nM” value in data set [3] is 53%. Besides, the “M249-AR % Viability 30 nM” value in data set [4] is recorded as 53%. In addition, the “M249 % Viability 5 nM” value in the data set on M249 melanoma cell line came to 50%. The “A2058 % Viability 10 nM” value in the data set on A2058 melanoma cell line is 44%.
